Assay results taken from US6043252A, “Carboline derivatives” (Icos Corporation, priority 1998, dated 2000).
No end group written: not given here.

What was measured:
human recombinant PDE5 = human recombinant PDE5 (Homo sapiens, UniProt O76074); assay: Inhibitory effect on cGMP-PDE (one-step PDE5 assay); assay type: biochemical; conditions: 0.15 μM 8-[H^3 ]-cGMP, 2% DMSO, 30 minutes
Procedure: CGMP-PDE activity of compounds of the present invention was measured using a one-step assay adapted from Wells et al., Biochim. Biophys. Acta, 384, 430 (1975). The reaction medium contained 50 mM Tris-HCl, pH 7.5, 5 mM magnesium acetate, […] 51-Nucleotidase, 1 mM EGTA, and 0.15 μM 8-[H^3 ]-cGMP. The enzyme used was a human recombinant PDE5 (ICOS Corp., Bothell, Wash.).
Compounds of the invention were dissolved in DMSO finally present at 2% in the assay.

[1] = tested on: Rat aortic smooth muscle cells (RSMC); assay: cGMP level measurements in rat aortic smooth muscle cells stimulated with ANF; assay type: cell-based; conditions: compound 30 minutes at 37° C., then ANF (100 nM) 10 minutes, dose giving half of the stimulation at saturating concentrations
Procedure: Rat aortic smooth muscle cells (RSMC), prepared according to Chamley et al., Cell Tissue Res., 177, 503-522 (1977), were used between the 10th and 25th passage at confluence in 24-well culture dishes. Culture media was aspirated and replaced with PBS (0.5 ml) containing the compound tested at the appropriate concentration. After 30 minutes at 37° C., particulates guanylate cyclase was stimulated by addition of ANF (100 nM) for 10 minutes. At the end of incubation, the medium was withdrawn, and two extractions were performed by addition of 65% ethanol (0.25 ml). The two ethanolic extracts were pooled and evaporated until dryness, using a Speed-vac system. CGMP was measured after acetylation by scintillation proximity immunoassay (AMERSHAM). The EC50 values are expressed as the dose-giving half of the stimulation at saturating concentrations.

[2] = tested on: conscious spontaneously hypertensive rats (SHRs); assay: Hypotensive effect in conscious spontaneously hypertensive rats; assay type: in vivo, rat; conditions: 5 mg/kg orally in 5% DMF and 95% olive oil, AUC from 0 to 5 hours
Procedure: The hypotensive effects of compounds according to the invention as identified in Table 2 were studied in conscious spontaneously hypertensive rats (SHRs). The compounds were administered orally at a dose of 5 mg/kg in a mixture of 5% DMF and 95% olive oil. Blood pressure was measured from a catheter inserted in the carotid artery and recorded for five hours after administration. The results are expressed as Area Under the Curve (AUC from 0 to 5 hours, mmhg.hour) of the fall in blood pressure over time.

MED = conditions: clinical; oral, sublingual, intraurethral, i.c. or topical; cited from earlier work
PDE6 = conditions: cited from earlier work

Compound	efficacy in MED (MED)	other results
CN(C)CCOc1ccc(/C=C/C(=O)N2CCc3c([nH]c4ccccc34)C2c2ccc3c(c2)OCO3)cc1 (stereo not drawn) [Example 61, (E)-1-[1-(3,4-Methylenedioxyphenyl)-1,3,4,9-tetrahydro-β-carbolin-2-yl]-3-[4-(2-dimethylaminoethoxy)phenyl]propene-1-one]		IC50 (human recombinant PDE5): 20 nM; EC50 [1]: 1800 nM; SHR AUC PO (Area Under the Curve of the fall in blood pressure over time) [2]: 95 mmHG · h
CCCCC[C@H](O)/C=C/[C@H]1[C@H](O)CC(=O)[C@@H]1CCCCCCC(=O)O [alprostadil]	not effective in all patients	
CN1CCc2cccc3c2[C@H]1Cc1ccc(O)c(O)c1-3 [apomorphine]	neither compound has demonstrated efficacy across a broad range of subjects	
Cc1ccc(N(CC2=NCCN2)c2cccc(O)c2)cc1 [phentolamine]	neither compound has demonstrated efficacy across a broad range of subjects	
CCCc1nn(C)c2c(=O)[nH]c(-c3cc(S(=O)(=O)N4CCN(C)CC4)ccc3OCC)nc12 [sildenafil]	has shown efficacy in oral administration clinical trials for MED	selectivity with respect to PDE6 (PDE6): little selectivity with respect to PDE6
vasoactive intestinal polypeptide (VIP): vasoactive intestinal polypeptide (VIP) (HSDAVFTDNYTRLRKQMAVKKYLNSILN; ends and bridges not checked; UniProt P01282 125-152, looked up)	active i.c.	
